From patent publication US20250332154A1, “USE OF NAPHTHOQUINE PHOSPHATE IN PREPARATION OF A MEDICAMENT FOR TREATING AUTOIMMUNE DISEASES” (SHANGHAI PHARMACEUTICALS INDUSTRY CO., LTD, priority 2022, published 2025)

How the values were obtained:
[1] = tested on: mouse whole spleen lymphocytes (LPS-induced B cell activation and proliferation); experiment: LPS-induced lymphocyte proliferation assay (3H-thymidine); format: cell-based; conditions: Mus musculus, Lymphocyte, read-out: LPS IC50
Method: (§1) BALB/c mice were sacrificed by cervical dislocation, and spleens were aseptically excised to prepare whole spleen lymphocytes. The cells were adjusted to the required concentration.
(§2) A suspension of mouse spleen lymphocytes was inoculated into a 96-well plate at 5×10^5/well, and ConA (final concentration: 1 μg/ml) or LPS (final concentration: 10 μg/ml) and the above 10 concentration gradients of the compound were added. Corresponding cell control wells without ConA and LPS, as well as medicament-free stimulated control wells, were set up. The cells were cultured in a 37° C., 5% CO2 incubator for 48 hours. Eight hours before the end of the culture, ^3H-thymidine was added, and the culture continued until the end of the experiment (i.e., the aforementioned 48 hours). The cells were collected onto glass fiber membranes using a cell collector.
(§3) ConA and LPS, as mitogens, stimulated proliferation and differentiation of T and B lymphocytes, respectively. This process is similar to the activation process of lymphocytes in vivo. Therefore, mitogen-induced lymphocyte proliferation is commonly used as an indicator to evaluate functionality of lymphocytes.

[2] = tested on: mouse whole spleen lymphocytes (ConA-induced T cell activation and proliferation); experiment: ConA-induced lymphocyte proliferation assay (3H-thymidine); format: cell-based; conditions: Mus musculus, Lymphocyte, read-out: ConA IC50
Method: as §1, §2, §3

[3] = Non-specific cytotoxicity assay (MTT), mouse spleen lymphocytes; format: cell-based; conditions: BALB/c, mouse, mouse whole spleen lymphocytes
Method: BALB/c mice were sacrificed by cervical dislocation, and spleens were aseptically excised to prepare whole spleen lymphocytes. The cells were adjusted to the required concentration. The compound concentrations started at 250 μM and was diluted with a 4-fold gradient to obtain 10 concentrations: 250, 62.5, 15.625, 3.906, 0.977, 0.244, 0.061, 0.015, 0.004 and 0.001 μM.
A suspension of mouse spleen lymphocytes was inoculated into a 96-well plate at 8×10^5/well, and the above 10 concentration gradients of the compound were added. A corresponding cell control (i.e. spleen lymphocyte culture system without compound) and a RPMI 1640 culture medium background control (blank culture medium control) were set up. The cells were cultured in a 37° C., 5% CO2 incubator for 48 hours. Four hours before the end of the culture, 20 μl of 5 mg/ml MTT solution was added, and the reaction continued until the end of the culture (i.e. the aforementioned 48 hours). The supernatant was aspirated and discarded, 200 μl DMSO was added to each well to dissolve the crystals. […]. The absorbance value was measured at […] with a microplate reader (Spectra Max 190, Molecular Devices).

[4] = tested on: IL-6; experiment: IL-6 production by LPS-induced RAW264.7 cells (ELISA); format: cell-based, mouse
Method: (§4) RAW264.7 cells were inoculated into a 96-well plate at 1×10^5/well and allowed to adhere to the wall for 6 hours in a 37° C., 5% CO2 incubator. […] After the cells adhered to the wall, the stimulant LPS (final concentration: 10 μg/ml) and the gradient-diluted compounds were added. A corresponding stimulation control and a cell control (without stimulation) were set up. After the end of the culture, the cell culture supernatants were collected, and the levels of TNF-α, IL-1β and IL-6 were measured by ELISA.

[5] = tested on: TNF-α; experiment: TNF-α production by LPS-induced RAW264.7 cells (ELISA); format: cell-based, mouse
Method: as §4

[6] = tested on: RAW264.7 cells; experiment: Non-specific cytotoxicity assay (MTT), RAW264.7; format: cell-based, mouse; conditions: 48 hours
Method: RAW264.7 cells were inoculated into a 96-well plate at 1×10^5/well and allowed to adhere to the wall for 6 hours in a 37° C., 5% CO2 incubator. […] A corresponding solvent control (cell control) and a culture medium background control (blank control) were set up. The cells were cultured in a 37° C., 5% CO2 incubator for 48 hours. Fifteen minutes before the end of the culture, 20 μl of 5 mg/ml MTT was added. At the end of the culture, the supernatant was aspirated and discarded, 200 μl DMSO was added to dissolve the crystals.

[7] = tested on: IL-1β; experiment: IL-1β production by LPS-induced RAW264.7 cells (ELISA); format: cell-based, mouse
Method: as §4

Compound	IC50 [1] [µM]	IC50 [2] [µM]	CC50 at 48 h [3] [µM]	IC50 ([4]; LPS 10 μg/ml, RAW264.7) [µM]	production of IL-6 ([4]; LPS-induced RAW264.7, in words)	IC50 ([5]; LPS 10 μg/ml, RAW264.7) [µM]	production of TNF-α ([5]; LPS-induced RAW264.7, in words)	CC50 [6] [µM]	IC50 ([7]; LPS 10 μg/ml, RAW264.7, read-out: IB-1β IC50) [µM]	production of LPS-induced IL-1β ([7]; RAW264.7, in words)
CCN(CC)CCCC(C)Nc1ccnc2cc(Cl)ccc12 (stereo not shown) [Chloroquine Phosphate]	15.1	14.3	26.9							
Chloroquine Sulfate				14.7	no significant effect	32.6	no significant effect	26.6	2.72	significantly inhibited
